Assay results: the supplement of paper PMC11451515

Assays:
Settings in all cases: 48 h
SEM cells [1] = test: AUC of viability dose-response curve (% viability x log10 dose units); higher = less sensitive
Outline: (§1)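 Leukemia cells adapted to each medium were seeded in 1536-well plates (500 or 1000 cells/well) and given library compounds in DMSO for 48 h at 37°C. The 11 threefold doses spanned 47 μM to 0.79 nM, and CellTiter-Glo One luminescence was normalised per plate to DMSO and cell-free wells before four-parameter log-logistic fitting on log10 dose. Area under the curve was integrated with the trapezoidal rule, scaling curves above full viability and removing curves that failed quality control.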

NOMO1 [2] = test: as above
Outline: as §1

P12-Ichikawa [3] = test: as above
Outline: as §1

SEM cells [4] = test: cell viability relative to DMSO control; higher = less cytotoxic
Outline: (§2)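 Three leukemia lines were tested: NOMO1 and SEM at 500 cells/well and P12-Ichikawa at 1000 cells/well. Each was adapted for at least four passages in each medium and seeded in 5 μl in 1536-well plates, and library compounds in DMSO were pin-dosed from 47 μM to 0.79 nM in 11 threefold steps. After 48 h at 37°C, CellTiter-Glo One luminescence was read. Viability is a percentage relative to DMSO wells on each plate, with cell-free wells as background.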

NOMO1 [5] = test: as above
Outline: as §2

P12-Ichikawa [6] = test: as above
Outline: as §2

NC(=O)[C@@H](CCC(F)(F)F)N(Cc1ccc(-c2ncon2)cc1F)[S+](=O)([O-])c1ccc(Cl)cc1
AUC of viability dose-response curve
Settings	NOMO1 [2]	P12-Ichikawa [3]	SEM cells [1]
HPLM + 10% dialyzed FBS	436	430	430
RPMI 5 mM glucose + 10% FBS	413	421	381
RPMI 5 mM glucose + 10% dialyzed FBS	426	403	385

cell viability [%]
Settings	NOMO1 [5]	P12-Ichikawa [6]	SEM cells [4]
HPLM + 10% dialyzed FBS, 0.000781 µM	107	105	96.6
HPLM + 10% dialyzed FBS, 0.00234 µM	106	98.7	106
HPLM + 10% dialyzed FBS, 0.00702 µM	113	98.7	102
HPLM + 10% dialyzed FBS, 0.0211 µM	108	103	106
HPLM + 10% dialyzed FBS, 0.0632 µM	109	92.4	103
HPLM + 10% dialyzed FBS, 0.19 µM	105	96.2	98.8
HPLM + 10% dialyzed FBS, 0.569 µM	97.5	96.1	81.4
HPLM + 10% dialyzed FBS, 1.71 µM	91.7	89.4	90.9
HPLM + 10% dialyzed FBS, 5.12 µM	96.3	87.1	91.5
HPLM + 10% dialyzed FBS, 15.4 µM	71	80	72.2
HPLM + 10% dialyzed FBS, 46.1 µM	3.05	5.81	4.51
RPMI 5 mM glucose + 10% FBS, 0.000781 µM	92.8	92.4	114
RPMI 5 mM glucose + 10% FBS, 0.00234 µM	103	95	108
RPMI 5 mM glucose + 10% FBS, 0.00702 µM	91.1	84.6	104
RPMI 5 mM glucose + 10% FBS, 0.0211 µM	90.6	101	114
RPMI 5 mM glucose + 10% FBS, 0.0632 µM	97.8	100	114
RPMI 5 mM glucose + 10% FBS, 0.19 µM	96.3	88.8	92.9
RPMI 5 mM glucose + 10% FBS, 0.569 µM	78.5	86.3	83.8
RPMI 5 mM glucose + 10% FBS, 1.71 µM	73.9	90.3	81.9
RPMI 5 mM glucose + 10% FBS, 5.12 µM	84.6	81.6	84.3
RPMI 5 mM glucose + 10% FBS, 15.4 µM	77.2	80.9	30
RPMI 5 mM glucose + 10% FBS, 46.1 µM	61	58	2.87
RPMI 5 mM glucose + 10% dialyzed FBS, 0.000781 µM	94.4	94.6	84.4
RPMI 5 mM glucose + 10% dialyzed FBS, 0.00234 µM	93	88.2	98.6
RPMI 5 mM glucose + 10% dialyzed FBS, 0.00702 µM	97.1	96.5	98.2
RPMI 5 mM glucose + 10% dialyzed FBS, 0.0211 µM	88.3	92.3	98.7
RPMI 5 mM glucose + 10% dialyzed FBS, 0.0632 µM	96.9	92.8	86.3
RPMI 5 mM glucose + 10% dialyzed FBS, 0.19 µM	105	87.3	88.6
RPMI 5 mM glucose + 10% dialyzed FBS, 0.569 µM	87	81.7	95.8
RPMI 5 mM glucose + 10% dialyzed FBS, 1.71 µM	83.2	84.8	79.5
RPMI 5 mM glucose + 10% dialyzed FBS, 5.12 µM	88.5	83.8	70.9
RPMI 5 mM glucose + 10% dialyzed FBS, 15.4 µM	81.6	84.2	52.3
RPMI 5 mM glucose + 10% dialyzed FBS, 46.1 µM	50.2	6.79	2.93
